Results published in US20150065567A1, “1-PHENYLALKANECARBOXYLIC ACID DERIVATIVES FOR THE TREATMENT OF ALZHEIMER'S DISEASE AND MULTIPLE SCLEROSIS” (Chiesi Farmaceutici S.p.A., priority 2013, published 2015).
Where two headings read alike, the source gives them in different places.

What was measured:
AD patients = conditions: cited from earlier work
dendritic spine density = conditions: mice; cited from earlier work
[1] = test system: astrocyte-microglia co-culture (mixed glial cell culture) exposed to Aβ1-42; assay: M1/M2 marker mRNA expression (RT-qPCR) in mixed glial culture exposed to Aβ1-42; format: cell-based, C57BL/6 mice
Experimental: C57BL/6 mice are purchased from Charles River. Mixed glial cell cultures were prepared from the brains of 1-3 day newborn mice. Briefly, after carefully removing meninges and large blood vessels, the brains were pooled and then dissociated by manual dispersion with a fire-polished Pasteur pipette. The cells were allowed to attach and grow at 37° C. in DMEM supplemented with 10% fetal bovine serum (FBS) (Euroclone), 4 mM L-glutamine, 200 U/ml penicillin/streptomycin in a water saturated atmosphere containing 5% CO2 for two week.
Soluble Aβ 1-42 were dissolved in sterile water to a final concentration of 2.5 mM, divided into aliquots and frozen. For experiments, mixed glial cells were incubated with soluble (not aggregated) Aβ 1-42, added at a concentration of 10 μM, in presence of CHF5074 (solved in 0.2% DMSO) or vehicle. Incubation was carried out for different times (from 1 to 8 days) in a Neurobasal/B27 medium. At the end of these periods, neuronal cell death by necrosis was evaluated by measuring the amount of lactate dehydrogenase (LDH) released into the culture medium using the CytoTox 96-non-radioactive cytotoxicity assay (Promega).
Total RNA was purified from cultured cells using the RNeasy Mini Kit for total RNA extractions (Qiagen). RNA was reverse transcribed using the Quantitect® Reverse Transcription Kit (Qiagen) with optimized mix of oligo-dT and random primers as primer and 1 μg of total RNA from mixed primary culture or co-culture. The reverse transcription reaction were performed in a total volume of 20 μL containing 5×RT-Buffer (that included dNTPs and Mg^2+), 50 U RT (Reverse trascriptase), 20 U RNase Inhibitor in RNAse-DNase free water for 10 min at 25° C., 2 h at 37° C. and 10 min at 85° C. Individual 25 μL SYBR Green real-time PCR reactions consisted of 2 μL of cDNA, 12.5 μL of 2× iQ™ SYBR Green Supermix (Bio-Rad), and 1.5 μL of each 10 μM optimized forward and reverse primers in 7.5 μL RNase-free water.
The PCR were performed on a Bio-Rad iCycler Detection System using a 3-stage program: 3 min at 50° C., 10 min at 95° C. and 40 cycles of 30 sec at 94° C. and 45 secat 60° C. For standardization of quantification, β-actin were amplified simultaneously. Sets of primer were designed to amplify by Real-time RT-PCR (q-RT-PCR) and RT-PCR genes expressed by classically activated (M1) microglia: • TNFα (Tumor Necrosis Factor α); • IL-1β (Interleukin1β); • iNOS (inducible Nitric Oxide Sinthase); and by alternatively activated (M2) microglia: • ARG1 (Arginase 1); • MRC1 (C-type mannose receptor 1); • TREM2 (Triggering Receptor Expressed on Myeloid cells-2). Primer3plus was used as primer designing tool and then checked the oligos (synthetized by Invitrogen) to verify melting temperatures and quality of the sequences.
Data were analyzed with Student's t-test for independent data. P<0.05 was considered as significant.
The effect of CHF5074 on the inflammatory response induced by Aβ was examined. Mixed astrocyte-microglia co-cultures were exposed to Aβ with or without CHF5074 at 3 μM concentration and examined for cytokine expression after 2 or 8 days. For classical activation of microglia, the expression of iNOS, beside TNFα and IL-1β was analyzed (see FIG. 2).
The alternative microglial activation markers (M2) in mixed glial cultures exposed to Aβ with and without CHF5074 for 2 days or 8 days were also investigated (see FIG. 3).

[2] = test system: Aβ42 secretion in human neuroglioma cells over-expressing the Swedish mutated APP (H4swe); conditions: read-out: IC50 for lowering Aβ42 secretion; cited from earlier work
COX-1 = COX-1 (Homo sapiens, UniProt P23219); conditions: concentrations up to 100 μM; cited from earlier work
COX-2 = target: T1, COX-2 (Homo sapiens, UniProt P35354); conditions: concentrations up to 300 μM; cited from earlier work
T1 sequence (P35354 18-604): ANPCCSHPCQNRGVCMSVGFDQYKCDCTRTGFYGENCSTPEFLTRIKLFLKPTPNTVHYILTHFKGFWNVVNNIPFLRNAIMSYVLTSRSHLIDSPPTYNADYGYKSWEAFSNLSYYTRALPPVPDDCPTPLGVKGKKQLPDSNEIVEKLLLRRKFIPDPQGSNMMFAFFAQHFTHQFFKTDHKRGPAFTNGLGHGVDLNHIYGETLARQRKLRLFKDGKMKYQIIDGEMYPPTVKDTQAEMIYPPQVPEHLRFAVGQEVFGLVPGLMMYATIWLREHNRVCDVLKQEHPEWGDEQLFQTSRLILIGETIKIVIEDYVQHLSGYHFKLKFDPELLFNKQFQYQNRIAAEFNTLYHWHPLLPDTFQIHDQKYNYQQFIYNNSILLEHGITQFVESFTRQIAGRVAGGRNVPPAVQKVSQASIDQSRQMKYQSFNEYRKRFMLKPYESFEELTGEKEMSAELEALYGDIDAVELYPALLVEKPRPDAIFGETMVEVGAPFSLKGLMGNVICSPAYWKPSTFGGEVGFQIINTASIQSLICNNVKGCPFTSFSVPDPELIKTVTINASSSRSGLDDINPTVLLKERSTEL

[3] = test system: Notch intracellular cleavage in human embryonic kidney 293swe cells; conditions: at 5 μM, HEK 293swe cells; cited from earlier work
NICD-responsive genes = conditions: at 100 μM; cited from earlier work
[4] = mice, cited from earlier work
[5] = rats; cited from earlier work
[6] = stated after the mice and rats data; cited from earlier work
[7] = guinea-pigs, cited from earlier work
[8] = dogs, cited from earlier work
[9] = test system: transgenic mouse models of AD; conditions: cited from earlier work
TNFα = conditions: healthy subjects, short-term administration; cited from earlier work

Sequence of COX-1 (P23219 24-599): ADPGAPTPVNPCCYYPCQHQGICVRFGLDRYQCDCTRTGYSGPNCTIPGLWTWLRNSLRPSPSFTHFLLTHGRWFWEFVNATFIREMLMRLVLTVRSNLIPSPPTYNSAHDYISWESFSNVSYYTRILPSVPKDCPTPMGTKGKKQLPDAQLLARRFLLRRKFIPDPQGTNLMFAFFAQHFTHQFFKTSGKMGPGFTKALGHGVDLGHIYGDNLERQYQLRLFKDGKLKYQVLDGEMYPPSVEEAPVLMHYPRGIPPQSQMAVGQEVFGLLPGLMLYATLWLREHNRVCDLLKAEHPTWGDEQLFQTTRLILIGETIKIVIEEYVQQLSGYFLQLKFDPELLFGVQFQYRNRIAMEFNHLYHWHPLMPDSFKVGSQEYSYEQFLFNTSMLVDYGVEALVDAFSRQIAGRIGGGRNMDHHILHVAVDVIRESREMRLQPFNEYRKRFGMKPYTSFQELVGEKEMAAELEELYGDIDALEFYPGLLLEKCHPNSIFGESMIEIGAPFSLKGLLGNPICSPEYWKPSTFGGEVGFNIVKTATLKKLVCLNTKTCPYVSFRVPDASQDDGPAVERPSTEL

CC(C)[C@H](O)C(=O)N[C@@H](C)C(=O)N[C@@H]1C(=O)N(C)CCc2ccccc21 [semagacestat]
cognition and ability to complete activities of daily living versus placebo (AD patients; interim analysis of two Phase 3 trials): worsened over time to a statistically significantly higher rate
rate of skin cancer compared to placebo (AD patients; two 21-month Phase 3 trials, more than 2,600 AD patients): increased rate of skin cancer
dendritic spine density (dendritic spine density): decrease dendritic spine density

O=C(O)C1(c2ccc(-c3ccc(Cl)c(Cl)c3)c(F)c2)CC1 [CHF 5074, 1-(3′,4′-dichloro-2-fluorobiphenyl-4-yl)cyclopropanecarboxylic acid]
ARG1 expression ([1]; 3 μM with 10 μM Aβ1-42, 2 days): no change
IL-1β mRNA expression ([1]; 3 μM with 10 μM Aβ1-42, 2 days): significantly decreased
TNFα mRNA expression ([1]; 3 μM with 10 μM Aβ1-42, 2 days): significantly decreased
iNOS mRNA expression ([1]; 3 μM with 10 μM Aβ1-42, 2 days): significantly decreased
increase of TREM2 mRNA over the basal value ([1]; 3 μM with 10 μM Aβ1-42, 2 days): ~60%
MRC1 mRNA level ([1]; 3 μM with 10 μM Aβ1-42, 2 days, Aβ alone reduced MRC1 to about 50% of basal): near a three-fold increase
M2 mRNAs (MRC1, TREM2 and ARG1) expression ([1]; 3 μM with 10 μM Aβ1-42, 8 days): None of the tested M2 mRNAs (MRC1, TREM2 and ARG1) appeared modified
TNFα, IL1β and iNOS (M1) expression levels ([1]; 3 μM with 10 μM Aβ1-42, 8 days): does not modify
IC50 [2]: 3.6 µM
inhibitory activity on COX-1 (COX-1): does not display inhibitory activity
inhibitory activity on COX-2 (COX-2): does not display inhibitory activity
effects on Notch intracellular cleavage [3]: no effects were observed
expression profile of several NICD-responsive genes (NICD-responsive genes): does not alter
oral absorption ([4]; oral): 74%
plasma elimination t1/2 [4]: 12 h
oral absorption [5]: 50%
brain levels as % of the corresponding plasma concentrations [6]: 3-14%
plasma elimination half-life t1/2 ([7]; after oral administration): ≈ 30 hours
brain penetration [7]: 3-9%
oral absorption ([8]; oral route): 80-100%
plasma elimination t1/2 [8]: ≈ 24 hours
tolerability ([9]; 60 mg/kg/day, prolonged treatment for 4-9 months): well tolerated
neuropathological and behavioral activity ([9]; oral doses of 60 mg/kg/day): active
TNFα level in cerebrospinal fluid (TNFα): reduce TNFα level
